Converted amounts (≈) assume the structure as drawn.
Assays:
[1] = tested on: Mycobacterium tuberculosis; assay: Antimicrobial activity against replicating Mycobacterium tuberculosis after 8 days by micro plate alamar blue assay; type: functional; conditions: 192 h
Escherichia coli [2] = assay: Antimicrobial activity against Escherichia coli EC2880 mutant after 16 to 20 hrs; type: functional
[3] = target: T1, DNA-directed RNA polymerase subunit beta (Mycobacterium tuberculosis, UniProt P9WGY9); assay: (§1) Inhibition of wild type Mycobacterium tuberculosis RNA polymerase after 10 mins using ribo green staining by rolling circle transcription assay
T1 sequence (P9WGY9 whole entry): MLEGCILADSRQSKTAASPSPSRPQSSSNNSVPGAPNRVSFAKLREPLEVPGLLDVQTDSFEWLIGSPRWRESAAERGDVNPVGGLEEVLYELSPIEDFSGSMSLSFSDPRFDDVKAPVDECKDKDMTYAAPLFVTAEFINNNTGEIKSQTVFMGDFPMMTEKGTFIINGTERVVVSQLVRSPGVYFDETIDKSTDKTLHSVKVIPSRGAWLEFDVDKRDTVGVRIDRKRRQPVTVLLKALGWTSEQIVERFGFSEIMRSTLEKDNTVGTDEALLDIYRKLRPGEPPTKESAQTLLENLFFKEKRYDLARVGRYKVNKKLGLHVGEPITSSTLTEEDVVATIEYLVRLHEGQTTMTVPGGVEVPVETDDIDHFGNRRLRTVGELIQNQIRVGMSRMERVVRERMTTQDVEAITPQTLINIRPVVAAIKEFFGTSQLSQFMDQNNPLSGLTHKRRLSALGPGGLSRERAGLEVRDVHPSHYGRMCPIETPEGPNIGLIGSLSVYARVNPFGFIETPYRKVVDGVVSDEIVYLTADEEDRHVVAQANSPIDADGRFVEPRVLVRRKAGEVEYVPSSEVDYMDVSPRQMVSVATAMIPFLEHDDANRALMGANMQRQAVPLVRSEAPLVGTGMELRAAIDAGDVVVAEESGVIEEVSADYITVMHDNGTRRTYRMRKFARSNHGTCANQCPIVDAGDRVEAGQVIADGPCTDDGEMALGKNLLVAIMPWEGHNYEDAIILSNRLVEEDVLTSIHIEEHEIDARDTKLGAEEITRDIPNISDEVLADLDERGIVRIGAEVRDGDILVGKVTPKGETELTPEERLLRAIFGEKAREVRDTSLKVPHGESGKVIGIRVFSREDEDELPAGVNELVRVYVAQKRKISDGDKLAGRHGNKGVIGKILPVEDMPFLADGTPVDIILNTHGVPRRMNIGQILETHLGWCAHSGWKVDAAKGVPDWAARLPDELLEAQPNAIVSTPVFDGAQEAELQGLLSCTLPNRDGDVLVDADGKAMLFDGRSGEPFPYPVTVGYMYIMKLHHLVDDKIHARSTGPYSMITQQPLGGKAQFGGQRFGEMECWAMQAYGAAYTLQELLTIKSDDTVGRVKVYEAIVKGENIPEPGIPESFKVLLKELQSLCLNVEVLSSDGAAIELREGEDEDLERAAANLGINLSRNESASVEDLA

Escherichia coli [4] = assay: Antimicrobial activity against wild type Escherichia coli TG2 after 16 to 20 hrs; type: functional
Escherichia coli [5] = assay: Antimicrobial activity against wild type Escherichia coli DH5[alpha] after 16 to 20 hrs; type: functional
[6] = tested on: Mycobacterium tuberculosis; assay: Antimicrobial activity against non-replicating Mycobacterium tuberculosis after 11 days by luminescence based low oxygen recovery assay; type: functional; conditions: 264 h
[7] = target: T2, DNA-directed RNA polymerase subunit beta (Mycobacterium tuberculosis) (UniProt P9WGY9); assay: as §1; parameters: unit not given here
T2 sequence (whole entry): T1 sequence (P9WGY9 whole entry)

| Compound | MIC90 [1] | MIC90 (Escherichia coli [2]) | IC50 [3] | MIC90 (Escherichia coli [4]) | MIC90 (Escherichia coli [5]) | MIC90 [6] | logIC50 [7] |
| --- | --- | --- | --- | --- | --- | --- | --- |
| CO[C@H]1/C=C/O[C@@]2(C)Oc3c(C)c(O)c4c(c3C2=O)C(=O)C=C(NC(=O)/C(C)=C\C=C\[C@H](C)[C@H](O)[C@@H](C)[C@@H](O)[C@@H](C)[C@H](OC(C)=O)[C@@H]1C)C4=O [RIFAMYCIN S] | 0.03 µM (≈ 0.0209 µg/mL) | 0.78 µM (≈ 0.543 µg/mL) | < 10 nM | 100 µM (≈ 69.6 µg/mL) | > 100 µM | 0.4 µM (≈ 0.278 µg/mL) | – |
| CO[C@H]1/C=C/O[C@@]2(C)Oc3c(C)c(NC4CCCCCC4)c4c(c3C2=O)C(=O)C(/C=N/N2CCN(C)CC2)=C(NC(=O)/C(C)=C\C=C\[C@H](C)[C@H](O)[C@@H](C)[C@@H](O)[C@@H](C)[C@H](OC(C)=O)[C@@H]1C)C4=O | 3.9 µM (≈ 3.57 µg/mL) | – | – | – | – | 13.7 µM (≈ 12.6 µg/mL) | – |
| CO[C@H]1/C=C/O[C@@]2(C)Oc3c(C)c(NCc4ccccc4)c4c(c3C2=O)C(=O)C(/C=N/N2CCN(C)CC2)=C(NC(=O)/C(C)=C\C=C\[C@H](C)[C@H](O)[C@@H](C)[C@@H](O)[C@@H](C)[C@H](OC(C)=O)[C@@H]1C)C4=O | > 4.4 µM | – | – | – | – | > 17.6 µM | – |
| O=[N+]([O-])c1cn2c(n1)OC[C@@H](OCc1ccc(OC(F)(F)F)cc1)C2 [PRETOMANID] | 0.66 µM (≈ 0.237 µg/mL) | – | – | – | – | 2.3 µM (≈ 0.826 µg/mL) | – |
| CO[C@H]1/C=C/O[C@@]2(C)Oc3c(C)c(NCc4ccccc4)c4c(c3C2=O)C(=O)C=C(NC(=O)/C(C)=C\C=C\[C@H](C)[C@H](O)[C@@H](C)[C@@H](O)[C@@H](C)[C@H](OC(C)=O)[C@@H]1C)C4=O | 2.4 µM (≈ 1.88 µg/mL) | – | – | – | – | > 20.4 µM | – |
| CNc1c(C)c2c3c4c1C(=O)C(=CC4=O)NC(=O)/C(C)=C\C=C\[C@H](C)[C@H](O)[C@@H](C)[C@@H](O)[C@@H](C)[C@H](OC(C)=O)[C@H](C)[C@@H](OC)/C=C/O[C@@](C)(O2)C3=O | > 5.6 µM | – | – | – | – | 20.6 µM (≈ 14.6 µg/mL) | – |
| CO[C@H]1/C=C/O[C@@]2(C)Oc3c(C)c(NCc4ccccc4)c4c(O)c(c(/C=N/N5CCN(C)CC5)c(O)c4c3C2=O)NC(=O)/C(C)=C\C=C\[C@H](C)[C@H](O)[C@@H](C)[C@@H](O)[C@@H](C)[C@H](OC(C)=O)[C@@H]1C | > 4.4 µM | – | – | – | – | > 17.5 µM | – |
| C/C=C/Nc1c(C)c2c3c4c1C(=O)C(=C(/C=N/N1CCN(C)CC1)C4=O)NC(=O)/C(C)=C\C=C\[C@H](C)[C@H](O)[C@@H](C)[C@@H](O)[C@@H](C)[C@H](OC(C)=O)[C@H](C)[C@@H](OC)/C=C/O[C@@](C)(O2)C3=O | > 4.7 µM | – | – | – | – | > 18.6 µM | – |
| CO[C@H]1/C=C/O[C@@]2(C)Oc3c(c4c5c(nn(CCO)c5c3C)C(=C(/C=N/N3CCN(C)CC3)C4=O)NC(=O)/C(C)=C\C=C\[C@H](C)[C@H](O)[C@@H](C)[C@@H](O)[C@@H](C)[C@H](OC(C)=O)[C@@H]1C)C2=O | 3.9 µM (≈ 3.36 µg/mL) | > 12.5 µM | 139 nM | > 100 µM | > 100 µM | > 18.6 µM | -0.856 |
| CO[C@H]1/C=C/O[C@@]2(C)Oc3c(C)c(O)c4c(c3C2=O)C(=O)C(/C=N/N2CCN(C)CC2)=C(NC(=O)/C(C)=C\C=C\[C@H](C)[C@H](O)[C@@H](C)[C@@H](O)[C@@H](C)[C@H](OC(C)=O)[C@@H]1C)C4=O [RIFAMPIN S] | 0.07 µM (≈ 0.0575 µg/mL) | 0.1 µM (≈ 0.0821 µg/mL) | 13 nM | 12.5 µM (≈ 10.3 µg/mL) | 25 µM (≈ 20.5 µg/mL) | 0.5 µM (≈ 0.41 µg/mL) | -1.88 |
| CO[C@H]1/C=C/O[C@@]2(C)Oc3c(C)c(OS(=O)(=O)c4ccc(C)cc4)c4c(c3C2=O)C(=O)C(/C=N/N2CCN(C)CC2)=C(NC(=O)/C(C)=C\C=C\[C@H](C)[C@H](O)[C@@H](C)[C@@H](O)[C@@H](C)[C@H](OC(C)=O)[C@@H]1C)C4=O | – | – | – | > 100 µM | > 100 µM | – | – |
| NNC(=O)c1ccncc1 [ISONIAZID] | 0.39 µM (≈ 0.0535 µg/mL) | – | – | – | – | > 128 µM | – |
| CO[C@H]1/C=C/O[C@@]2(C)Oc3c(C)c(O)c4c(O)c(c(/C=N/N5CCN(C)CC5)c(O)c4c3C2=O)NC(=O)/C(C)=C\C=C\[C@H](C)[C@H](O)[C@@H](C)[C@@H](O)[C@@H](C)[C@H](OC(C)=O)[C@@H]1C [RIFAMPIN] | 0.13 µM (≈ 0.107 µg/mL) | 0.1 µM (≈ 0.0823 µg/mL) | – | 12.5 µM (≈ 10.3 µg/mL) | 12.5 µM (≈ 10.3 µg/mL) | 1.9 µM (≈ 1.56 µg/mL) | – |
| CCNc1c(C)c2c3c4c1C(=O)C(=CC4=O)NC(=O)/C(C)=C\C=C\[C@H](C)[C@H](O)[C@@H](C)[C@@H](O)[C@@H](C)[C@H](OC(C)=O)[C@H](C)[C@@H](OC)/C=C/O[C@@](C)(O2)C3=O | 5.5 µM (≈ 3.98 µg/mL) | – | – | – | – | 21.4 µM (≈ 15.5 µg/mL) | – |
| CO[C@H]1/C=C/O[C@@]2(C)Oc3c(C)c(NC4CCCCCC4)c4c(O)c(c(/C=N/N5CCN(C)CC5)c(O)c4c3C2=O)NC(=O)/C(C)=C\C=C\[C@H](C)[C@H](O)[C@@H](C)[C@@H](O)[C@@H](C)[C@H](OC(C)=O)[C@@H]1C | 3.8 µM (≈ 3.49 µg/mL) | – | – | – | – | > 17.4 µM | – |
| C/C=C/Nc1c(C)c2c3c4c1C(=O)C(=CC4=O)NC(=O)/C(C)=C\C=C\[C@H](C)[C@H](O)[C@@H](C)[C@@H](O)[C@@H](C)[C@H](OC(C)=O)[C@H](C)[C@@H](OC)/C=C/O[C@@](C)(O2)C3=O | 5.2 µM (≈ 3.82 µg/mL) | – | – | – | – | 18.3 µM (≈ 13.4 µg/mL) | – |
| CCNc1c(C)c2c3c4c1C(=O)C(=C(/C=N/N1CCN(C)CC1)C4=O)NC(=O)/C(C)=C\C=C\[C@H](C)[C@H](O)[C@@H](C)[C@@H](O)[C@@H](C)[C@H](OC(C)=O)[C@H](C)[C@@H](OC)/C=C/O[C@@](C)(O2)C3=O | > 4.7 µM | – | – | – | – | > 18.9 µM | – |
| C/C=C/Nc1c(C)c2c3c4c(O)c(/C=N/N5CCN(C)CC5)c(c(O)c14)NC(=O)/C(C)=C\C=C\[C@H](C)[C@H](O)[C@@H](C)[C@@H](O)[C@@H](C)[C@H](OC(C)=O)[C@H](C)[C@@H](OC)/C=C/O[C@@](C)(O2)C3=O | > 4.6 µM | – | – | – | – | > 18.6 µM | – |
| CO[C@H]1/C=C/O[C@@]2(C)Oc3c(c4c5c(nn(CCO)c5c3C)C(=CC4=O)NC(=O)/C(C)=C\C=C\[C@H](C)[C@H](O)[C@@H](C)[C@@H](O)[C@@H](C)[C@H](OC(C)=O)[C@@H]1C)C2=O | > 5.4 µM | – | – | – | – | > 21.7 µM | – |
| CONc1c(C)c2c3c4c1C(=O)C(=CC4=O)NC(=O)/C(C)=C\C=C\[C@H](C)[C@H](O)[C@@H](C)[C@@H](O)[C@@H](C)[C@H](OC(C)=O)[C@H](C)[C@@H](OC)/C=C/O[C@@](C)(O2)C3=O | 3.8 µM (≈ 2.75 µg/mL) | – | – | – | – | 12.5 µM (≈ 9.06 µg/mL) | – |
| COc1c(N2C[C@@H]3CCCN[C@@H]3C2)c(F)cc2c(=O)c(C(=O)O)cn(C3CC3)c12 [MOXIFLOXACIN] | 0.64 µM (≈ 0.257 µg/mL) | – | – | – | – | 4.3 µM (≈ 1.73 µg/mL) | – |
| CCNc1c(C)c2c3c4c(O)c(/C=N/N5CCN(C)CC5)c(c(O)c14)NC(=O)/C(C)=C\C=C\[C@H](C)[C@H](O)[C@@H](C)[C@@H](O)[C@@H](C)[C@H](OC(C)=O)[C@H](C)[C@@H](OC)/C=C/O[C@@](C)(O2)C3=O | > 4.7 µM | – | – | – | – | > 18.8 µM | – |
| CO[C@H]1/C=C/O[C@@]2(C)Oc3c(C)c(NCCO)c4c(O)c(c(/C=N/N5CCN(C)CC5)c(O)c4c3C2=O)NC(=O)/C(C)=C\C=C\[C@H](C)[C@H](O)[C@@H](C)[C@@H](O)[C@@H](C)[C@H](OC(C)=O)[C@@H]1C | > 4.6 µM | – | – | – | – | > 18.5 µM | – |
| CO[C@H]1/C=C/O[C@@]2(C)Oc3c(C)c(NCCO)c4c(c3C2=O)C(=O)C=C(NC(=O)/C(C)=C\C=C\[C@H](C)[C@H](O)[C@@H](C)[C@@H](O)[C@@H](C)[C@H](OC(C)=O)[C@@H]1C)C4=O | 5.32 µM (≈ 3.93 µg/mL) | – | – | – | – | > 21.7 µM | – |
| CO[C@H]1/C=C/O[C@@]2(C)Oc3c(C)c(NCCO)c4c(c3C2=O)C(=O)C(/C=N/N2CCN(C)CC2)=C(NC(=O)/C(C)=C\C=C\[C@H](C)[C@H](O)[C@@H](C)[C@@H](O)[C@@H](C)[C@H](OC(C)=O)[C@@H]1C)C4=O | > 4.6 µM | – | – | – | – | > 18.5 µM | – |

Reference: ChEMBL document CHEMBL1909569 (Bioorg Med Chem Lett, 2011)
